Earlier results on two compounds are cited in patent publication US20090269400A1, “Nanoparticulate and Controlled Release Compositions Comprising a Cephalosporin” (ELAN PHARMA INTERNATIONAL LIMITED, priority 2005, published 2009).

For the data set the following is noted: stated in words in background/summary, no method given.

The structures appear in SMILES notation. Read-outs that look alike come from different tables or passages of the source.

In the case of `COCC1=C(C(=O)O)N2C(=O)[C@@H](NC(=O)/C(=N\OC)c3csc(N)n3)[C@H]2SC1` [cefpodoxime], the solubility in water result is reported as “practically insoluble in water”.

As for `COCC1=C(C(=O)OC(C)OC(=O)OC(C)C)N2C(=O)[C@@H](NC(=O)/C(=N\OC)c3csc(N)n3)[C@H]2SC1` (mixture of isomers) [Cefpodoxime proxetil, (RS)-1(isopropoxycarbonyloxy)ethyl (+)-(6R,7R)-7-[2-(2-amino-4-thiazolyl)-2-{(Z)methoxyimino}acetamido]-3-methoxymethyl-8-oxo-5-thia-1-azabicyclo [4.2.0]oct-2-ene-2-carboxylate], the solubility in water entry was “practically insoluble in water”. Moreover, the solubility in water entry (listed as cefpodoxime proxetil) is reported as “only slightly soluble in water”.
